Data reported in patent US20200268762A1, “7-SUBSTITUTED SULFONIMIDOYLPURINONE COMPOUNDS AND DERIVATIVES FOR THE TREATMENT AND PROPHYLAXIS OF LIVER CANCER” (Hoffmann-La Roche Inc., priority 2019, published 2020).
Converted amounts (≈) assume the structure as drawn. Like-named read-outs stand apart in the source and are kept apart here.

Legend:
LYSA solubility study = assay type: physicochemical; conditions: for LYSA of Active Forms: 0.05 M phosphate buffer pH 6.5; for solubility thermodynamic: 0.05 M phosphate buffer, pH 6.5, aqueous buffer, thermodynamic from solid
Description: LYSA study is used to determine the aqueous solubility of tested compounds. Samples were prepared in duplicate from 10 mM DMSO stock solution. After evaporation of DMSO with a centrifugal vacuum evaporator, the compounds were dissolved in 0.05 M phosphate buffer (pH 6.5), stirred for one hour and shaken for two hours. After one night, the solutions were filtered using a microtiter filter plate. Then the filtrate and its 1/10 dilution were analyzed by HPLC-UV. […] The results were in μg/mL. In case the percentage of sample measured in solution after evaporation divided by the calculated maximum of sample amount was bigger than 80%, the solubility was reported as bigger than this value.

[1] = test system: cell lines originating from hepatocellular carcinoma and cholangiocarcinoma; experiment: Direct treatment of tumor cell lines, cell counts by nuclei imaging; assay type: cell-based; conditions: 27 μM down to 270 pM, 72, 120 and 148 hours, relative to DMSO control
Description: Cell lines derived from hepatocellular carcinoma and cholangiocarcinoma (EGI1 and OZ) were maintained and tested in the following media: Huh7 and EGI1 were cultured in DMEM 4.5 g/L glucose (Gibco, Cat #31966-021), 10% FCS (GIBCO, Cat #10500-064 Lot 07G3690K), 2 mM L-glutamine (Thermo Fischer, Cat #25030081), 1 mM sodium pyruvate (GIBCO Cat #11360-039). Hep3B and HepG2 were cultivated in Eagles MEM+Earle's BSS (PAN, Cat # P04-08510), 10% FCS, 2 mM L-glutamine, 0.1 mM NEAA (PAN Cat # P08-32100) and 1 mM sodium pyruvate. JHH1, JHH5, JHH6 and OZ were cultivated in Williams'E (PAN Cat # P04-29050), 10% FCS and 2 mM L-glutamine. JHH2 was cultivated using Williams'E, 10% FCS and 2 mM L-glutamine. HLE was cultivated in DMEM 4.5 g/L glucose, 10% FCS and 2 mM L-glutamine. HLF was cultivated in DMEM 4.5 g/L glucose, 5% FCS, 0.1 mM NEAA and 2 mM L-glutamine. JHH4 was cultivated in Eagles MEM+Earle's BSS, 10% FCS and 2 mM L-glutamine. SkHep1 was cultivated in Eagles MEM+Earle's BSS, 10% FCS, 2 mM L-glutamine, 0.1 mM NEAA and 1 mM sodium pyruvate. SNU449 was cultivated using RPMI 1640 (PAN Cat # P04-18047) 10% FCS and 2 mM L-glutamine. […]
Tumor cell counts were determined using Perkin Elmer Operetta Imaging System and Harmony Software by counting nuclei stained for 20 minutes in full media using Hoechst33342 dye (2 μg/ml, Sigma Cat # B2261). […]

[2] = test system: immune cell infiltrate in iAST tumor; experiment: Leukocyte infiltrate of iAST tumors by flow cytometry; assay type: in vivo, mouse; conditions: day 12 after treatment start
Description: Tumors from iAST mice were treated as described in FIG. 1. […] For flow cytometry, tumors were excised and single cell suspensions obtained by mechanical processing and enzymatic digestion (DNAse 0.01%, Collagenase IV 1 mg/ml). Staining procedures started with Fc receptor blocking using 2.4G2 antibody clone (1:200 dilution, BD Bioscience), and the following antibodies (clones) were used to analyzed leukocyte infiltrate: CD45-FITC (30-F11, BioLegend) and CD11b-BUV737 (M1/70, BD Bioscience). Samples were acquired using a LSR Fortessa machine (BD Bioscience) and analyzed by FlowJo version 10 (Treestar).

[3] = test system: iAST mouse model of hepatocellular carcinoma; experiment: iAST mouse model of hepatocellular carcinoma, tumor burden; conditions: iAST mice, Sorafenib 90 mg/kg daily
Description: Per group n=10 were analyzed by One-way ANOVA and Tukey correction shown as individual dots with means±SEM using GraphPad Prism software version 6.

human TLR7 = target: T1, human TLR7 (Homo sapiens, UniProt Q9NYK1); experiment: HEK293-Blue-hTLR-7 cells assay (SEAP reporter); assay type: cell-based; conditions: for EC50: SEAP reporter, 20 hrs
T1 sequence (Q9NYK1 27-1049): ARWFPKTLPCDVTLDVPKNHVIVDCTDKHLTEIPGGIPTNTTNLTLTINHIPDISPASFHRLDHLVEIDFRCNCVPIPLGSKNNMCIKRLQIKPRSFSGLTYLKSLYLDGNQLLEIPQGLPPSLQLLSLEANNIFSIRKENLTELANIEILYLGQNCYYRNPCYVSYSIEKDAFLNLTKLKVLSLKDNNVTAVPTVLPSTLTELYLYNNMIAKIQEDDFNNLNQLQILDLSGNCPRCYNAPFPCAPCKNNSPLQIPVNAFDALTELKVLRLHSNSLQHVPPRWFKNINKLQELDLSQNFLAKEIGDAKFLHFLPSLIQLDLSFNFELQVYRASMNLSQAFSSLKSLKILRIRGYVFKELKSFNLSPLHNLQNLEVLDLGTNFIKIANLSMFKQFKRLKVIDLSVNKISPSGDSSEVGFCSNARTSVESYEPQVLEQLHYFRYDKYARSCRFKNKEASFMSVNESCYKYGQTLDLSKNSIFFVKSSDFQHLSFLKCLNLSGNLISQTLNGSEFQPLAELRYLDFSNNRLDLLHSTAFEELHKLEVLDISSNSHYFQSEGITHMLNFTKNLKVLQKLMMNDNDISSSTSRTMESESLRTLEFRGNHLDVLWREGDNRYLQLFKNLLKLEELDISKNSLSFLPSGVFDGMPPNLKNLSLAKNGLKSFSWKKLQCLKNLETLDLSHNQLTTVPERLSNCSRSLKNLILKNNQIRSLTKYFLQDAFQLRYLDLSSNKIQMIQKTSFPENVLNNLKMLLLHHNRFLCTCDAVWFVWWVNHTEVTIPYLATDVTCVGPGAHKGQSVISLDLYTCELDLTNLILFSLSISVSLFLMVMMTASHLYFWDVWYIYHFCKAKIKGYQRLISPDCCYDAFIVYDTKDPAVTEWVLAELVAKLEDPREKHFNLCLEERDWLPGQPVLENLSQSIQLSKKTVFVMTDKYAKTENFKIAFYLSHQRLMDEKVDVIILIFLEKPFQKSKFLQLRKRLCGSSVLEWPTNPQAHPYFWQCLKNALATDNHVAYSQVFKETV
From the text: HEK293-Blue-hTLR-7 cells assay: A stable HEK293-Blue-hTLR-7 cell line was purchased from InvivoGen (Cat. #: hkb-htlr7, San Diego, Calif., USA). These cells were designed for studying the stimulation of human TLR7 by monitoring the activation of NF-κB. A SEAP (secreted embryonic alkaline phosphatase) reporter gene was placed under the control of the IFN-β minimal promoter fused to five NF-κB and AP-1-binding sites. The SEAP was induced by activating NF-κB and AP-1 via stimulating HEK-Blue hTLR7 cells with TLR7 ligands. Therefore the reporter expression was regulated by the NF-κB promoter upon stimulation of human TLR7 for 20 hrs. The cell culture supernatant SEAP reporter activity was determined using QUANTI-Blue™ kit (Cat. #: rep-qbl, Invivogen, San Diego, Ca, USA) at a wavelength of 640 nm, a detection medium that turns purple or blue in the presence of alkaline phosphatase. […] Then 20 μL of the supernatant from each well was incubated with 180 μL Quanti-blue substrate solution at 37° C. for 2 hrs and the absorbance was read at 620-655 nm using a spectrophotometer. The signalling pathway that TLR7 activation leads to downstream NF-κB activation has been widely accepted, and therefore similar reporter assay was also widely used for evaluating TLR7 agonist (Tsuneyasu Kaisho and Takashi Tanaka, Trends in Immunology, Volume 29, Issue 7, July 2008, […]; Hiroaki Hemmi et al, Nature Immunology 3, 196-200 (2002)). The Compounds and Examples of the present invention were tested in HEK293-hTLR-7 assay for their TLR7 agonism activity as described herein and results are listed in Table 1. […] The calculated ratio of EC50(prodrug)/EC50(active form) were within the range from 32 to about 7600.

[4] = corresponding active form, read-out: HEK293-hTLR-7 EC50 (Active form)

CCCS(=N)(=O)c1nc(N)c2[nH]c(=O)n(Cc3ccccc3)c2n1 (single isomer, unassigned) [Compound 1e-A, 6-amino-9-benzyl-2-(propylsulfonimidoyl)-7H-purin-8-one]
LYSA of Active Forms (LYSA solubility study): 56 µg/mL

CC[S@@](=N)(=O)c1nc(N)c2[nH]c(=O)n(Cc3ccc(Cl)cc3)c2n1 (single isomer, unassigned) [Compound 41c-B, 6-amino-9-[(4-chlorophenyl)methyl]-2-(ethylsulfonimidoyl)-7H-purin-8-one]
tumor cell proliferation upon direct treatment [1]: None of the cell lines tested showed a significant increase in proliferation
tumor cell proliferation upon direct treatment ([1]; listed as compound 41c-B): does not induce enhanced tumor cell proliferation

CNC(=O)c1cc(Oc2ccc(NC(=O)Nc3ccc(Cl)c(C(F)(F)F)c3)cc2)ccn1 [Sorafenib, 4-{4-[3-(4-Chlor-3-trifluormethylphenyl)ureido]phenoxy}pyridin-2-carbonsäuremethylamid]
overall lymphoid and myeloid composition of the tumors [2]: changes were clearly driven by Sorafenib
efficacy in monotherapy (total liver and tumor weights) [3]: highly effective
Examination of the liver for superficial tumor nodules (tumor nodule free) ([3]; day 12 after treatment start, 41-A 10 mg/kg once a week oral): 0/10 tumor nodule free

CC[S@@](=N)(=O)c1nc(N)c2[nH]c(=O)n(Cc3ccc(Br)cc3)c2n1 (single isomer, unassigned) [Compound 47e-B, 6-Amino-9-[(4-bromophenyl)methyl]-2-(ethylsulfonimidoyl)-7H-purin-8-one]
EC50 (human TLR7; [4]): 25 nM

CCCN(C)C(=O)n1c(=O)n(Cc2ccc(Br)cc2)c2nc([S@](=N)(=O)CC)nc(N)c21 (single isomer, unassigned) [Example 47-A]
EC50 (human TLR7; prodrug, read-out: HEK293-hTLR-7 EC50 (Prodrug)): 10900 nM
solubility thermodynamic (LYSA solubility study; read-out: LYSA of Prodrugs): 154 µg/mL (≈ 302 µM)

CCCS(=N)(=O)c1nc(N)c2[nH]c(=O)n(Cc3ccc(C)cc3)c2n1 (single isomer, unassigned) [Compound 36g-B, 6-Amino-2-(propylsulfonimidoyl)-9-(p-tolylmethyl)-7H-purin-8-one]
LYSA of Active Forms (LYSA solubility study): 11 µg/mL

CCC[S@](=N)(=O)c1nc(N)c2c(n1)n(Cc1ccc(C)cc1)c(=O)n2C(=O)N(C)CCOC [Example 38-A, 6-Amino-N-(2-methoxyethyl)-N-methyl-8-oxo-2-[S(S)-propylsulfonimidoyl]-9-(p-tolylmethyl)purine-7-carboxamide]
Ratio (EC50(prodrug)/EC50(active form)) (human TLR7): 1378.9

CCCS(=N)(=O)c1nc(N)c2[nH]c(=O)n(Cc3ccccc3)c2n1 (single isomer, unassigned) [Compound 1e-B, 6-amino-9-benzyl-2-(propylsulfonimidoyl)-7H-purin-8-one]
solubility thermodynamic (LYSA solubility study; read-out: LYSA of Active Forms): 50 µg/mL (≈ 144 µM)

CCCS(=N)(=O)c1nc(N)c2[nH]c(=O)n(Cc3ccc(C)cc3)c2n1 (single isomer, unassigned) [Compound 36g-A, 6-Amino-2-(propylsulfonimidoyl)-9-(p-tolylmethyl)-7H-purin-8-one]
solubility thermodynamic (LYSA solubility study; read-out: LYSA of Active Forms): 6 µg/mL (≈ 16.6 µM)

CC[S@@](=N)(=O)c1nc(N)c2[nH]c(=O)n(Cc3ccc(Br)cc3)c2n1 (single isomer, unassigned) [Compound 47e-A, 6-Amino-9-[(4-bromophenyl)methyl]-2-(ethylsulfonimidoyl)-7H-purin-8-one]
EC50 (human TLR7; [4]): 21 nM
